# Measured values taken from patent US20180133203A1, “METHODS OF TREATING LIVER DISEASE” (Gilead Sciences, Inc., priority 2016, published 2018).
# How the values were obtained:
# Type in all cases: in vivo, male Wistar rats
# CDHFD/NaNO2 rats [1] = test: Quantitative IHC of the myofibroblast marker desmin in liver, CDHFD/NaNO2 rat model of NASH; conditions: for liver % desmin marker area: mean±SEM, vehicle-treated CDHFD/NaNO2 rats 10.3±0.8%, healthy control 0.7±0.1%; for reduction of liver desmin staining: vs vehicle-treated CDHFD/NaNO2 rats, Formula (I) 0.2% in diet, Formula (III) 30 mg/kg/day, week 4 to 14
# Procedure: (§1) The following study was conducted to evaluate the efficacy of the combination of an ASK1 inhibitor and an FXR agonist in a rodent model of non-alcoholic steatohepatitis (NASH), relative to the efficacy of the individual agents alone in the model. NASH was induced in male Wistar rats by administration of a choline-deficient high fat diet (CDHFD) combined with the chronic administration of sodium nitrite (CDHFD/NaNO2). The model capitalizes on the “two hit theory” of NASH by inducing both metabolic dysfunction (CDHFD) and oxidative stress (NaNO2) in the liver to result in hepatic fibrosis that is similar in character and severity to that seen in patients with advanced NASH. Rats were fed CDHFD for a total of 14 weeks and were administered NaNO2 from week 4 to 14. The compound of Formula (III) (given as admixture in diet, adjusted to deliver 30 mg/kg/day), compound of Formula (I) (administered as a 0.2% admixture in diet), or vehicle was administered from week 4 to 14. The following endpoints were assessed at the completion of the 14 week study: i) liver fibrosis measured by liver hydroxyproline (OHP) content and by quantitative morphometric analysis of collagen content by Picosirius red (PSR) staining; ii) myofibroblast activation in liver sections as measured by quantitative IHC of the myofibroblast marker desmin; and, iii) Col1a1 and Timp1 in liver tissue measured by RT-PCR. All CDHFD/NaNO2 animals were fed a choline-deficient high-fat diet (CDHFD; Research Diets, Inc) for 14 weeks and were also administered intraperitoneal injections of NaNO2 (3 injections per week; Sigma Aldrich #31443) at a dose of 25 mg/kg (from week 4 to 10) and at a dose of 12.5 mg/kg (from week 10 to 14). Formula (III) (given as admixture in the CDHFD diet, adjusted to deliver 30 mg/kg/day, n=10 animals per group) and Formula (I) (given as a 0.2% admixture in the CDHFD diet, n=10 per group) were administered drug from week 4 to 14. Vehicle control animals were administered the same CDHFD diet with no drug added (Vehicle; n=10 animals per group) from week 4 to 14. […] On the final day of study, rats received a single oral gavage of either Formula (I) or Formula (III) at a dose of 30 mg/kg, four hours before animals were euthanized and tissues were collected for analyses. All endpoints were assessed at the completion of the 14 week study protocol. Whole slide images of Picrosirius Red (PSR) and Desmin stained slides were captured using a Leica AT2 scanner at 40× magnification. […] Quantitative image analysis was performed on the whole slide-scan images using Definiens Tissue Studio Architect XD (Definiens Inc.) to determine the extent and intensity of PSR and Desmin. […] The total PSR-stained area and Desmin IHC staining were measured and expressed as a percentage of total liver area stained.
# CDHFD/NaNO2 rats [2] = test: Quantitative morphometric analysis of liver collagen by Picrosirius Red (PSR) staining in CDHFD/NaNO2 rat model of NASH; conditions: week 4 to 14; for PSR area (% area of liver): mean±SEM, vehicle-treated CDHFD/NaNO2 rats 8.5±0.6%, healthy control 1.7±0.3%, Formula (I) 0.2% in diet, Formula (III) 30 mg/kg/day; for reduction of liver collagen (PSR): vs vehicle-treated CDHFD/NaNO2 rats, Formula (I) 0.2% admixture in diet, Formula (III) 30 mg/kg/day in diet
# Procedure: as §1
# CDHFD/NaNO2 rats [3] = test: Liver hydroxyproline content in CDHFD/NaNO2 rat model of NASH; conditions: vs vehicle-treated CDHFD/NaNO2 rats; Formula (I) 0.2% in diet, Formula (III) 30 mg/kg/day, week 4 to 14
# Procedure: The following study was conducted to evaluate the efficacy of the combination of an ASK1 inhibitor and an FXR agonist in a rodent model of non-alcoholic steatohepatitis (NASH), relative to the efficacy of the individual agents alone in the model. NASH was induced in male Wistar rats by administration of a choline-deficient high fat diet (CDHFD) combined with the chronic administration of sodium nitrite (CDHFD/NaNO2). The model capitalizes on the “two hit theory” of NASH by inducing both metabolic dysfunction (CDHFD) and oxidative stress (NaNO2) in the liver to result in hepatic fibrosis that is similar in character and severity to that seen in patients with advanced NASH. Rats were fed CDHFD for a total of 14 weeks and were administered NaNO2 from week 4 to 14. […] The following endpoints were assessed at the completion of the 14 week study: i) liver fibrosis measured by liver hydroxyproline (OHP) content and by quantitative morphometric analysis of collagen content by Picosirius red (PSR) staining; ii) myofibroblast activation in liver sections as measured by quantitative IHC of the myofibroblast marker desmin; and, iii) Col1a1 and Timp1 in liver tissue measured by RT-PCR. […] All endpoints were assessed at the completion of the 14 week study protocol. […] The hydroxyproline content was determined photometrically by measuring the absorbance at 560 nm. […]
Compound,liver % desmin marker area (CDHFD/NaNO2 rats [1]) [%],reduction of liver desmin staining (CDHFD/NaNO2 rats [1]) [%],PSR area (% area of liver) (CDHFD/NaNO2 rats [2]) [%],reduction of liver collagen (PSR) (CDHFD/NaNO2 rats [2]) [%],reduction of liver hydroxyproline content (CDHFD/NaNO2 rats [3])
O=C(O)c1ccnc(N2CC(O)(c3ccc(OCc4c(-c5c(Cl)cccc5Cl)noc4C4CC4)cc3Cl)C2)c1 [Formula (III)],5.9±0.7,43,6.6±0.9,22,did not significantly reduce
O=C(Nc1cccc(-c2nncn2C2CC2)c1)c1cc(-n2cnc(C3CC3)c2)ccn1 [Formula (I)],5.6±0.7,46,6.2±1.1,27,did not significantly reduce
